Test results published in patent KR20220113942A, “제조성 및 용출성이 우수한 소형 정제” (스미토모 파마 가부시키가이샤, priority 2019, dated 2021).

Assay: Test Example 2: evaluation of tabletability (capping on tableting)
Format: physicochemical
Settings: conclusion in words from Table 22

## C[C@@H]1N=C(N)NC(N(C)C)=N1 [이메글리민, (6R)-N2,N2,6-트리메틸-3,6-디히드로-1,3,5-트리아진-2,4-디아민, 염산염]
  compression moldability: 압축 성형성이 나빠서
High drug content ratio in the tablet
  tendency to tableting failure (capping) as drug content ratio in the tablet rises: 타정 장해(캐핑)가 발생하기 쉬움
